One data set addresses T1, CYP2C19 (Homo sapiens, UniProt P33261).
T1 construct: from tissue; host or cells: human liver microsomes
Nature of the data set: Inhibition of human liver microsomal cytochrome P450 isoenzyme CYP2C19. As to conditions: human liver microsomes. The format is in vitro ADME. As to the method:
(§1) Objective: The inhibitory effect of the test compound on the activity of human liver microsomal cytochrome P450 isoenzymes (CYP1A2, CYP2C9, CYP2C19, CYP2D6 and CYP3A4) was determined. […]
(In general: Microsomes from liver hold many membrane-bound enzymes, among them those of drug oxidation.)

A further data set deals with T2, CYP3A4 (Homo sapiens, UniProt P08684).
T2 construct: from tissue; host or cells: human liver microsomes
T2 sequence (P08684 whole entry): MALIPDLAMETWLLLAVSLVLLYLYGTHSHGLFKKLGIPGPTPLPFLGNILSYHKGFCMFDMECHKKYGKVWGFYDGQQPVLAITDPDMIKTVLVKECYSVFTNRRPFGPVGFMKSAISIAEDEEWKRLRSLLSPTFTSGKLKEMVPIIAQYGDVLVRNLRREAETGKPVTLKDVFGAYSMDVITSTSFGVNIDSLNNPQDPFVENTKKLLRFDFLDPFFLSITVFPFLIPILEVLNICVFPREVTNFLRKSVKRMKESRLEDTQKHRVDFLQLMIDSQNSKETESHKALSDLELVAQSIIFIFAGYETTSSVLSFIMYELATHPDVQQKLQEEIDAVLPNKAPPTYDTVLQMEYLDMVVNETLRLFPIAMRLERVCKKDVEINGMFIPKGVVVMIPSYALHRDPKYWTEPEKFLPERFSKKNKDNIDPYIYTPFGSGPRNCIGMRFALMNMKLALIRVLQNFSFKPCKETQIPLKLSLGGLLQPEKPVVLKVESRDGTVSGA
Nature of the data set: Inhibition of human liver microsomal cytochrome P450 isoenzyme CYP3A4. The format is in vitro ADME. As to conditions: human liver microsomes. The protocol:
as §1

Data set [1] in a line: Metabolic stability in liver microsomes of beagle dogs. The format is in vitro ADME. Particulars: dog. As to the method: Objective: The metabolic stability of the tested compound of formula (I) in liver microsomes of rats, beagle dogs and cynomolgus monkeys was determined. […]
A further data set has as its system HBV. Nature of the data set: qPCR assay for in vitro testing of HBV (HBV DNA content in HepG2.2.15 cells). The format is cell-based. As to conditions: Hepatitis B virus, 192 h, HBV DNA by qPCR, day 8, read-out: Concentration for 50% of maximal effect (EC50) of HBV. The protocol: HBV DNA content in HepG2.2.15 cells was detected by a real time-qPCR assay, and the inhibitory action of the compound on HBV was evaluated by taking the EC50 value of the compound as an index.
2.1. cell lines: HepG2.2.15 cells
3.1. HepG2.2.15 cells (4×10^4 cells/well) were plated in a 96-well plate and cultured overnight at 37° C. and 5% CO2.
3.2. On the next day, the compound was diluted for a total of 8 concentrations, with 3-fold gradient dilutions. The compound at different concentrations was added into the culture wells in duplicate. The final concentration of DMSO in the culture medium was 1%. 1 μM GLS4 served as 100% inhibition control (WO2008154817A1 discloses the structure of GLS4 as follows:
DMSO at 1% served as 0% inhibition control.
3.3. On the fifth day, the original culture medium was replaced with a fresh culture medium containing the compound.
3.4. On the eighth day, the culture medium in the culture wells was collected, and the high-throughput DNA purification kit (Qiagen-51162) was used to extract DNA. For specific steps, refer to the product manual.
3.6. 15 μL of the reaction mixture was added into each well of the 96-well PCR plate, and then 10 μL of sample DNA or HBV DNA standard was added into each well.
3.7. Reaction conditions for PCR were as follows: heating at 95° C. for 10 min; then denaturating at 95° C. for 15 s and extending at 60° C. for 1 min for 40 cycles.
3.8.1. […]
On the technique in general: Quantitative PCR measures a nucleic acid by following its amplification.

In a further data set the target is T3, CYP2C9 (Homo sapiens, UniProt P11712).
T3 construct: from tissue; host or cells: human liver microsomes
T3 sequence (P11712 whole entry): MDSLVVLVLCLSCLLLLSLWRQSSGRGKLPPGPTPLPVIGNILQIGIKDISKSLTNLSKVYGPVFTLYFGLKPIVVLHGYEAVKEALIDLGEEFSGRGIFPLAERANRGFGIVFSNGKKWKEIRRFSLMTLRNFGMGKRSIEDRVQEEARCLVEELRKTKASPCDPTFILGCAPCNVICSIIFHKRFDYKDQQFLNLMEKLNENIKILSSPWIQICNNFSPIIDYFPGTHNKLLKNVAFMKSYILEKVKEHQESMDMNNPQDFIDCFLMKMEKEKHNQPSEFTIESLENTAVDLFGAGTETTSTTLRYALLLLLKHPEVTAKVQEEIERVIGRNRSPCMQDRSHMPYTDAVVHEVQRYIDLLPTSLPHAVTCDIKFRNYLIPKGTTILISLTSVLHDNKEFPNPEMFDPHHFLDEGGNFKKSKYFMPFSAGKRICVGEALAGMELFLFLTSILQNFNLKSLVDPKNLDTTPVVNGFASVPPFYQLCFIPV
The data set can be described thus: Inhibition of human liver microsomal cytochrome P450 isoenzyme CYP2C9. As to conditions: human liver microsomes. The format is in vitro ADME. The protocol: as §1

pEC50, pIC50: −log10 of the molar value. Where only a bound is given, the exact number is not on record here.

T1 sequence (P33261 whole entry): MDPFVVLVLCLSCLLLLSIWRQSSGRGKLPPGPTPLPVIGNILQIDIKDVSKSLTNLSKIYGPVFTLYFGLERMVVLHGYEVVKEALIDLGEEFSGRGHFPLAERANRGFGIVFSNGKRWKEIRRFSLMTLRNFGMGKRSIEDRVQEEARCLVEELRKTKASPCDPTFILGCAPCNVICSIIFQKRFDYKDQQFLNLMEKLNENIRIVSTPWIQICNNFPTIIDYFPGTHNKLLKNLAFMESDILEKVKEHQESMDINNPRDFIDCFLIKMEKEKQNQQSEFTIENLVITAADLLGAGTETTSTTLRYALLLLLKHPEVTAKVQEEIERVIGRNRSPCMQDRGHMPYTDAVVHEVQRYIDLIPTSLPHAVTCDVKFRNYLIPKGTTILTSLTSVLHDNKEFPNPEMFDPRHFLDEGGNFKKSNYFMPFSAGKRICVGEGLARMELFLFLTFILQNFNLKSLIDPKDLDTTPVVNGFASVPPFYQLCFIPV

As usually defined, the pIC50 is −log10 of the IC50, conventionally taken in molar units. Read a high pIC50 as a low IC50. By microsomal CLint is commonly meant the rate of metabolic loss divided by the concentration. For orientation: CLint scaled means a measure of how fast metabolising enzymes remove a compound, apart from limits set by blood flow. The term half-life denotes the time in which the quantity being followed falls by half. The low end stands for fast loss, the high end for slow loss. `CC1(NC(=O)C(=O)c2c(Cl)c(C(=O)Nc3cc(F)c(F)c(F)c3)c3n2CCC3)CCC(CC(=O)O)CC1` (stereo not shown) [Compound of formula (I)]: the pIC50 against CYP2C19, against CYP3A4 and at CYP2C9 was less than 4.30 each time. For the same compound, the microsomal CLint at 1 μM in data set [1] (beagle, microsomes) was less than 9.6 µL/min/mg. In data set [1] (Beagle dogs liver microsomes), this compound came in with a CLint scaled at 1 μM of less than 13.8 mL/min/kg. In data set [1] (Beagle dogs liver microsomes, 1 μM compound, 0.5 mg/mL), this compound had a half-life at 1 μM of more than 2.42 h. The pEC50 with HBV was 8.40.

(Values after patent US20230026869A1, “CRYSTAL FORM OF NUCLEOPROTEIN INHIBITOR AND USE THEREOF” (CHIA TAI TIANQING PHARMACEUTICAL GROUP CO., LTD., priority 2019, published 2023).)
